Source: PubChem BioAssay AID2060610 (Molecular Pharmacology Branch, DTP, NCI, 2025)
“And” between values parts separate entries of the source, which are not always exact repeats. Equal entries are not always repeated.

Tested on: 616215-338-R-J1-PDC complex spheroids, viability % test/control
Test: Anticancer human tumor 616215-338-R-J1-PDC patient-derived colon adenocarcinoma cell line growth inhibition [CLK]
Conditions: for viability, T/C: stronger effect = lower value
Procedure, shortened: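 Patient-derived tumor cells grown as complex spheroids with HUVEC endothelial cells and mesenchymal stem cells, treated with drug combinations. Concentrations descend in half-log steps from near clinical Cmax, or from 10 microM if Cmax unknown.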

[1] = curve of first compound, second compound 0.0316 µM
[2] = curve of first compound, second compound 0.1 µM
[3] = curve of first compound, second compound 0.316 µM
[4] = curve of first compound, second compound 1 µM
[5] = curve of first compound, second compound 3.16 µM
[6] = curve of first compound, second compound 10 µM
[7] = second compound 0.0316 µM, first compound 0.0316 µM
[8] = second compound 0.0316 µM, first compound 0.1 µM
[9] = second compound 0.0316 µM, first compound 0.316 µM
[10] = second compound 0.0316 µM, first compound 1 µM
[11] = second compound 0.0316 µM, first compound 3.16 µM
[12] = second compound 0.0316 µM, first compound 10 µM
[13] = second compound 0.1 µM, first compound 0.0316 µM
[14] = second compound 0.1 µM, first compound 0.1 µM
[15] = second compound 0.1 µM, first compound 0.316 µM
[16] = second compound 0.1 µM, first compound 1 µM
[17] = second compound 0.1 µM, first compound 3.16 µM
[18] = second compound 0.1 µM, first compound 10 µM
[19] = second compound 0.316 µM, first compound 0.0316 µM
[20] = second compound 0.316 µM, first compound 0.1 µM
[21] = second compound 0.316 µM, first compound 0.316 µM
[22] = second compound 0.316 µM, first compound 1 µM
[23] = second compound 0.316 µM, first compound 3.16 µM
[24] = second compound 0.316 µM, first compound 10 µM
[25] = second compound 1 µM, first compound 0.0316 µM
[26] = second compound 1 µM, first compound 0.1 µM
[27] = second compound 1 µM, first compound 0.316 µM
[28] = second compound 1 µM, first compound 1 µM
[29] = second compound 1 µM, first compound 3.16 µM
[30] = second compound 1 µM, first compound 10 µM
[31] = second compound 3.16 µM, first compound 0.0316 µM
[32] = second compound 3.16 µM, first compound 0.1 µM
[33] = second compound 3.16 µM, first compound 0.316 µM
[34] = second compound 3.16 µM, first compound 1 µM
[35] = second compound 3.16 µM, first compound 3.16 µM
[36] = second compound 3.16 µM, first compound 10 µM
[37] = second compound 10 µM, first compound 0.0316 µM
[38] = second compound 10 µM, first compound 0.1 µM
[39] = second compound 10 µM, first compound 0.316 µM
[40] = second compound 10 µM, first compound 1 µM
[41] = second compound 10 µM, first compound 3.16 µM
[42] = second compound 10 µM, first compound 10 µM
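Further: spheroids exposed to agents for 7 days.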
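Wherever viability, T/C is given: 100% = DMSO vehicle wells.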

For `COc1ccc([C@@H](O)c2cc(-c3ncnc4cc(N5CCOCC5)ccc34)c(F)cc2Cl)nn1` + CNC(=O)c1ccc(Nc2nc(OC3CCCC3)c3c(-c4ccc5nc(C)oc5c4)c[nH]c3n2)c(OC)c1, the IC50 [1] was > 10000 nM, the IC50 [2] was < 31.6 nM and the IC50 [3] was < 31.6 nM. The IC50 [4] was < 31.6 nM, the IC50 [5] was < 31.6 nM and the IC50 [6] was < 31.6 nM. It also gave a viability, T/C [7] of 90.8%, a viability, T/C [8] of 103% and a viability, T/C [9] of 99.1%. It also gave a viability, T/C [10] of 100%, a viability, T/C [11] of 114% and a viability, T/C [12] of 72.5%. The viability, T/C [13] was 45.1%, the viability, T/C [14] was 45.4% and the viability, T/C [15] was 43.4%. The viability, T/C [16] was 45.3%, the viability, T/C [17] was 43.2% and the viability, T/C [18] was 28.8%. It also gave a viability, T/C [19] of 46.3%, a viability, T/C [20] of 43.5% and a viability, T/C [21] of 39.4%. For the same compound, the viability, T/C [22] was 37.9%, the viability, T/C [23] was 32.4% and the viability, T/C [24] was 28%. The viability, T/C [25] was 40.1%, the viability, T/C [26] was 39.9% and the viability, T/C [27] was 38.9%. For the same compound, the viability, T/C [28] was 38.8%, the viability, T/C [29] was 32.2% and the viability, T/C [30] was 22.6%. It also gave a viability, T/C [31] of 49.7%, a viability, T/C [32] of 43.7% and a viability, T/C [33] of 41%. It also gave a viability, T/C [34] of 32.6%, a viability, T/C [35] of 30.6% and a viability, T/C [36] of 20.8%. It also gave a viability, T/C [37] of 49.1%, a viability, T/C [38] of 41.5% and a viability, T/C [39] of 38.8%. For the same compound, the viability, T/C [40] was 37.1%, the viability, T/C [41] was 27.2% and the viability, T/C [42] was 19.1%.
`CC1(C)CCC(CN2CCN(c3ccc(C(=O)NS(=O)(=O)c4ccc(NCC5CCOCC5)c([N+](=O)[O-])c4)c(Oc4cnc5[nH]ccc5c4)c3)CC2)=C(c2ccc(Cl)cc2)C1` was tested, and the viability, T/C (compound 0.0316 µM) was 88.4% and 102%, the viability, T/C (compound 0.1 µM) was 95.6% and 102% and the viability, T/C (compound 0.316 µM) was 97.5% and 98.5%. The viability, T/C (compound 1 µM) was 90.2% and 96.7%, the viability, T/C (compound 3.16 µM) was 86.7% and 87.4% and the IC50 (curve of compound) was 5250 nM and > 10000 nM.
For `O=c1[nH]cc(F)c(=O)[nH]1` + CN1CCN(c2cc(C(=O)Nc3cc4cc(-c5cnn(C)c5)ccc4cn3)ccn2)CC1, the IC50 [1] was 796 nM, the IC50 [2] was 692 nM and the IC50 [3] was < 31.6 nM. The IC50 [4] was < 31.6 nM, the IC50 [5] was < 31.6 nM and the IC50 [6] was < 31.6 nM. For the same compound, the viability, T/C [7] was 98.6%, the viability, T/C [8] was 119% and the viability, T/C [9] was 64.4%. For the same compound, the viability, T/C [10] was 46.2%, the viability, T/C [11] was 42.4% and the viability, T/C [12] was 50.6%. The viability, T/C [13] was 121%, the viability, T/C [14] was 109% and the viability, T/C [15] was 61.2%. It also gave a viability, T/C [16] of 49.6%, a viability, T/C [17] of 38.7% and a viability, T/C [18] of 41.1%. It also gave a viability, T/C [19] of 31.9%, a viability, T/C [20] of 34.7% and a viability, T/C [21] of 41.8%. The viability, T/C [22] was 33.3%, the viability, T/C [23] was 29.6% and the viability, T/C [24] was 26.6%. It also gave a viability, T/C [25] of 0.14%, a viability, T/C [26] of 1.14% and a viability, T/C [27] of 2.43%. It also gave a viability, T/C [28] of 0.08%, a viability, T/C [29] of 2.58% and a viability, T/C [30] of 2.28%. For the same compound, the viability, T/C [31] was 0.08%, the viability, T/C [32] was 0.42% and the viability, T/C [33] was 1.29%. The viability, T/C [34] was 0.07%, the viability, T/C [35] was 0.09% and the viability, T/C [36] was 0.13%. It also gave a viability, T/C [37] of 0.07%, a viability, T/C [38] of 1.38% and a viability, T/C [39] of 4.56%. The viability, T/C [40] was 0.1%, the viability, T/C [41] was 2.34% and the viability, T/C [42] was 0.19%.
